# pEC50: −log10 of the molar value.
# Molecular target: human FXR (NR1H4) (Homo sapiens (Human), UniProt Q96RI1)
# Assay: Human FXR (NR1H4) Assay (Gal4 promoter driven luciferase reporter, Indigo Bioscience kit);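 as to Efficacy (%): 100% equals the efficacy of CDCA; efficacy normalized to CDCA set as 100%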
# Format: cell-based
# Details: for pEC50: Human FXR (NR1H4) Assay, potency ranges; for Emax: read-out: Efficacy (%)
# Summary of the method: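 CHO reporter cells expressing human FXR with an FXR-responsive luciferase reporter, treated with compound doses at 0.2% DMSO. Incubation lasted 22 h at 37 °C before luciferase detection reagent was added. Luminescence was then read.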
# human FXR (NR1H4), sequence (Q96RI1 whole entry, the tested form may be a part): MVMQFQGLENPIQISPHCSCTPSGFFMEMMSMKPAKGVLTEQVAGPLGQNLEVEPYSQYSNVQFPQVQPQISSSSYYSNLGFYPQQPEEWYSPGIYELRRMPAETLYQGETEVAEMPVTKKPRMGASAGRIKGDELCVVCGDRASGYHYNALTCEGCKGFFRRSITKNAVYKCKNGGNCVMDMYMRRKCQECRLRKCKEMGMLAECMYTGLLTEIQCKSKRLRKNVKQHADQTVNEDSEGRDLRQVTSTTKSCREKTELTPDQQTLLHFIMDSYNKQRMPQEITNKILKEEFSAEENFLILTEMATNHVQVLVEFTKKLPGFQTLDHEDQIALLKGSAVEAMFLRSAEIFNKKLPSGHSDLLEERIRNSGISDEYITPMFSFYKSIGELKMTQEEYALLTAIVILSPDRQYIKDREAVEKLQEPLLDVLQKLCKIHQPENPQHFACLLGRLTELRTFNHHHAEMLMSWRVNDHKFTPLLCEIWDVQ
SMILES,pEC50,Emax [%]
CC[C@H]1[C@@H](O)[C@@H]2[C@H](CC[C@]3(C)[C@@H]([C@H](C)CCOC(=O)N4CCC(CO)(CCl)CC4)CC[C@@H]23)[C@@]2(C)CC[C@@H](O)C[C@@H]12 [Example 183],> 7.00,451
CC[C@H]1[C@@H](O)[C@@H]2[C@H](CC[C@]3(C)[C@@H]([C@H](C)CCCOC(=O)N(C)C)CC[C@@H]23)[C@@]2(C)CC[C@@H](O)C[C@@H]12 [Example 128],5.00 to 6.00,138
CC[C@H]1[C@@H](O)[C@@H]2[C@H](CC[C@]3(C)[C@@H]([C@H](C)COC(=O)NS(=O)(=O)c4ccc(N5C6CCC5CC6)cc4)CC[C@@H]23)[C@@]2(C)CC[C@@H](O)C[C@@H]12 [Example 44-a],> 7.00,182
CC[C@H]1[C@@H](O)[C@@H]2[C@H](CC[C@]3(C)[C@@H]([C@H](C)CCOC(=O)NCc4ccc(C(=O)O)cc4)CC[C@@H]23)[C@@]2(C)CC[C@@H](O)C[C@@H]12 [Example 159],6.00 to 7.00,221
CC[C@H]1[C@@H](O)[C@@H]2[C@H](CC[C@]3(C)[C@@H]([C@H](C)CCOC(=O)NCCc4cccs4)CC[C@@H]23)[C@@]2(C)CC[C@@H](O)C[C@@H]12 [Example 143],6.00 to 7.00,202
CC[C@H]1[C@@H](O)[C@@H]2[C@H](CC[C@]3(C)[C@@H]([C@H](C)CCCOC(=O)NS(=O)(=O)C(C)(C)C)CC[C@@H]23)[C@@]2(C)CC[C@@H](O)C[C@@H]12 [Example 117],6.00 to 7.00,365
CC[C@H]1[C@@H](O)[C@@H]2[C@H](CC[C@]3(C)[C@@H]([C@H](C)CCOC(=O)NS(=O)(=O)c4ccc5ccsc5c4)CC[C@@H]23)[C@@]2(C)CC[C@@H](O)C[C@@H]12 [Example 104-f],> 7.00,213
CC[C@H]1[C@@H](O)[C@@H]2[C@H](CC[C@]3(C)[C@@H]([C@H](C)CCOC(=O)NS(=O)(=O)c4ccc(F)c(F)c4)CC[C@@H]23)[C@@]2(C)CC[C@@H](O)C[C@@H]12 [Example 102],> 7.00,235
CC[C@H]1[C@@H](O)[C@@H]2[C@H](CC[C@]3(C)[C@@H]([C@H](C)CCOC(=O)N4CC(CO)C4)CC[C@@H]23)[C@@]2(C)CC[C@@H](O)C[C@@H]12 [Example 214],> 7.00,194
CC[C@H]1[C@@H](O)[C@@H]2[C@H](CC[C@]3(C)[C@@H]([C@H](C)CCOC(=O)NS(=O)(=O)C4CCCC4)CC[C@@H]23)[C@@]2(C)CC[C@@H](O)C[C@@H]12 [Example 47],> 7.00,321
CC[C@H]1[C@@H](O)[C@@H]2[C@H](CC[C@]3(C)[C@@H]([C@H](C)CCOC(=O)NS(=O)(=O)c4ccc(C(C)(C)C)cc4)CC[C@@H]23)[C@@]2(C)CC[C@@H](O)C[C@@H]12 [Example 45],> 7.00,235
CC[C@H]1[C@@H](O)[C@@H]2[C@H](CC[C@]3(C)[C@@H]([C@H](C)CCOC(=O)N4CCCCC4CO)CC[C@@H]23)[C@@]2(C)CC[C@@H](O)C[C@@H]12 (stereo partly shown) [Example 180],6.00 to 7.00,390
CC[C@H]1[C@@H](O)[C@@H]2[C@H](CC[C@]3(C)[C@@H]([C@H](C)COC(=O)NS(=O)(=O)c4ccc(-c5ccc(C(C)(C)C)cc5)cc4)CC[C@@H]23)[C@@]2(C)CC[C@@H](O)C[C@@H]12 [Example 34],6.00 to 7.00,186
CC[C@H]1[C@@H](O)[C@@H]2[C@H](CC[C@]3(C)[C@@H]([C@H](C)CCCOC(=O)Nc4ccc(C(C)(C)C)cc4)CC[C@@H]23)[C@@]2(C)CC[C@@H](O)C[C@@H]12 [Example 121],5.00 to 6.00,8
CC[C@H]1[C@@H](O)[C@@H]2[C@H](CC[C@]3(C)[C@@H]([C@H](C)CCOC(=O)NCc4ccccc4)CC[C@@H]23)[C@@]2(C)CC[C@@H](O)C[C@@H]12 [Example 125],6.00 to 7.00,305
CC[C@H]1[C@@H](O)[C@@H]2[C@H](CC[C@]3(C)[C@@H]([C@H](C)CCOC(=O)N4CCCC4c4cccc(Cl)c4)CC[C@@H]23)[C@@]2(C)CC[C@@H](O)C[C@@H]12 (stereo partly shown) [Example 184],5.00 to 6.00,213

SMILES,pEC50,Emax [%]
CC[C@H]1[C@@H](O)[C@@H]2[C@H](CC[C@]3(C)[C@@H]([C@H](C)CCOC(=O)N4CCCCC4)CC[C@@H]23)[C@@]2(C)CC[C@@H](O)C[C@@H]12 [Example 146],> 7.00,223
CC[C@H]1[C@@H](O)[C@@H]2[C@H](CC[C@]3(C)[C@@H]([C@H](C)COC(=O)NS(=O)(=O)c4ccc(OC(C)(C)C)cc4)CC[C@@H]23)[C@@]2(C)CC[C@@H](O)C[C@@H]12 [Example 30],> 7.00,261
CC[C@H]1[C@@H](O)[C@@H]2[C@H](CC[C@]3(C)[C@@H]([C@H](C)CCCOC(=O)NS(=O)(=O)N4CCCC4)CC[C@@H]23)[C@@]2(C)CC[C@@H](O)C[C@@H]12 [Example 119],5.00 to 6.00,370
CC[C@H]1[C@@H](O)[C@@H]2[C@H](CC[C@]3(C)[C@@H]([C@H](C)CCCOC(=O)NS(=O)(=O)c4cccc(C(C)(C)C)c4)CC[C@@H]23)[C@@]2(C)CC[C@@H](O)C[C@@H]12 [Example 112],6.00 to 7.00,123
CC[C@H]1[C@@H](O)[C@@H]2[C@H](CC[C@]3(C)[C@@H]([C@H](C)CCOC(=O)NCCCC(=O)OC)CC[C@@H]23)[C@@]2(C)CC[C@@H](O)C[C@@H]12 [Example 187],6.00 to 7.00,421
CC[C@H]1[C@@H](O)[C@@H]2[C@H](CC[C@]3(C)[C@@H]([C@H](C)COC(=O)NS(=O)(=O)c4ccc(N5CCCCC5)nc4)CC[C@@H]23)[C@@]2(C)CC[C@@H](O)C[C@@H]12 [Example 14],> 7.00,270
CC[C@H]1[C@@H](O)[C@@H]2[C@H](CC[C@]3(C)[C@@H]([C@H](C)CCOC(=O)NS(C)(=O)=O)CC[C@@H]23)[C@@]2(C)CC[C@@H](O)C[C@@H]12 [Example 97],6.00 to 7.00,245
CC[C@H]1[C@@H](O)[C@@H]2[C@H](CC[C@]3(C)[C@@H]([C@H](C)CCOC(=O)NCCSC)CC[C@@H]23)[C@@]2(C)CC[C@@H](O)C[C@@H]12 [Example 140],6.00 to 7.00,246
CC[C@H]1[C@@H](O)[C@@H]2[C@H](CC[C@]3(C)[C@@H]([C@H](C)COC(=O)NS(=O)(=O)c4ccc(-c5ncco5)cc4)CC[C@@H]23)[C@@]2(C)CC[C@@H](O)C[C@@H]12 [Example 44-p],> 7.00,218
CC[C@H]1[C@@H](O)[C@@H]2[C@H](CC[C@]3(C)[C@@H]([C@H](C)CCOC(=O)N4C[C@@H](C)O[C@@H](C)C4)CC[C@@H]23)[C@@]2(C)CC[C@@H](O)C[C@@H]12 [Example 182],6.00 to 7.00,419
CC[C@H]1[C@@H](O)[C@@H]2[C@H](CC[C@]3(C)[C@@H]([C@H](C)CCOC(=O)N4CC[C@@H](CO)C4)CC[C@@H]23)[C@@]2(C)CC[C@@H](O)C[C@@H]12 [Example 212],> 7.00,479
CC[C@H]1[C@@H](O)[C@@H]2[C@H](CC[C@]3(C)[C@@H]([C@H](C)CCCOC(=O)NS(=O)(=O)c4ccc(C(C)(C)C)cc4)CC[C@@H]23)[C@@]2(C)CC[C@@H](O)C[C@@H]12 [Example 111],6.00 to 7.00,208
CC[C@H]1[C@@H](O)[C@@H]2[C@H](CC[C@]3(C)[C@@H]([C@H](C)CCOC(=O)NS(=O)(=O)c4ccccc4C(C)(C)C)CC[C@@H]23)[C@@]2(C)CC[C@@H](O)C[C@@H]12 [Example 85],> 7.00,240
CC[C@H]1[C@@H](O)[C@@H]2[C@H](CC[C@]3(C)[C@@H]([C@H](C)CCOC(=O)Nc4cncc(Cl)c4)CC[C@@H]23)[C@@]2(C)CC[C@@H](O)C[C@@H]12 [Example 194],5.00 to 6.00,170
CC[C@H]1[C@@H](O)[C@@H]2[C@H](CC[C@]3(C)[C@@H]([C@H](C)CCCOC(=O)NC4CC4)CC[C@@H]23)[C@@]2(C)CC[C@@H](O)C[C@@H]12 [Example 122],6.00 to 7.00,204
CC[C@H]1[C@@H](O)[C@@H]2[C@H](CC[C@]3(C)[C@@H]([C@H](C)CCOC(=O)N4CCC(CC)(CO)CC4)CC[C@@H]23)[C@@]2(C)CC[C@@H](O)C[C@@H]12 [Example 217],> 7.00,337
